From the supplement of paper PMC10331698
± gives the standard deviation of the averaged measurements.

Experiments:
Assay in all cases: level (log10 ratio to DMSO vehicle control); higher = higher biomarker level / cell amount than vehicle control
[1] = compound: CN(C(=O)C(F)(F)C(F)(F)C(F)(F)F)[Si](C)(C)C [N-Methyl-N-trimethylsilylheptafluorobutyramide] (in DMSO)
Experimental: (§1)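 BioMAP Diversity Plus panel of 12 human primary cell co-culture systems (3C, 4H, LPS, SAg, BT, BF4T, BE3C, CASM3C, HDF3CGF, KF3CT, MyoF, Mphg). Compounds were added 1 h before stimulation and left for 24 h (MyoF 48 h; BT 72 h for soluble read-outs or 6 d for IgG). Biomarkers were read by ELISA, cytotoxicity by SRB, PBMC viability and proliferation by Alamar Blue. Each well value was divided by the mean of 8 DMSO control wells on the same plate and log10 transformed; duplicate blinded samples were tested at 4 concentrations.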

[2] = compound: CO[Si](C)(CCC(F)(F)C(F)(F)C(F)(F)C(F)(F)C(F)(F)C(F)(F)F)OC [Dimethoxymethyl((perfluorohexyl)ethyl)silane] (in DMSO)
Experimental: as §1

Octafluoroadipic acid = compound: O=C(O)C(F)(F)C(F)(F)C(F)(F)C(F)(F)C(=O)O [Octafluoroadipic acid] (in DMSO)
Experimental: as §1

[3] = compound: O=C(O)C(F)(F)OC(F)(F)C(F)(F)OC(F)(F)C(F)(F)OC(F)(F)C(F)(F)C(F)(F)C(F)(F)F [Perfluoro-3,6,9-trioxatridecanoic acid] (in DMSO); settings: 6700 nM
Experimental: as §1

[4] = compound: O=C(O)CCC(F)(C(F)(F)F)C(F)(F)F [4,4-bis(Trifluoromethyl)-4-fluoropropanoic acid] (in DMSO)
Experimental: as §1

[5] = compound: O=S(=O)(O)C(F)(F)C(F)(F)OC(F)(F)C(F)(F)F [Perfluoro(2-ethoxyethane)sulfonic acid] (in DMSO)
Experimental: as §1

[6] = compound: OCC(F)(F)OC(F)(F)C(F)(F)OC(F)(F)C(F)(F)OC(F)(F)CO [1H,1H,11H,11H-Perfluorotetraethylene glycol] (in DMSO)
Experimental: as §1

HDF3CGF:CXCL8/IL-8
level (log10) ([1]; 6700 nM): -0.0015 ± 0.0092
level (log10) ([1]; 20000 nM): -0.003 ± 0.0057
level (log10) ([1]; 60000 nM): 0.0075 ± 0.0078
level (log10) ([2]; 6700 nM): -0.0055 ± 0.0035
level (log10) ([2]; 20000 nM): 0.01 ± 0.0028
level (log10) (Octafluoroadipic acid; 6700 nM): -0.0005 ± 0.0078
level (log10) (Octafluoroadipic acid; 20000 nM): 0.003 ± 0.0014
level (log10) (Octafluoroadipic acid; 60000 nM): 0.0065 ± 0.0092
level (log10) [3]: 0.003 ± 0.0042
level (log10) ([4]; 6700 nM): -0.0105 ± 0.013
level (log10) ([4]; 20000 nM): -0.0005 ± 0.0092
level (log10) ([4]; 60000 nM): 0.0065 ± 0.03
level (log10) ([5]; 6700 nM): -0.015 ± 0.0028
level (log10) ([5]; 20000 nM): -0.0075 ± 0.0064
level (log10) ([5]; 60000 nM): 0.0045 ± 0.0035
level (log10) ([6]; 6700 nM): 0.0015 ± 0.028
level (log10) ([6]; 20000 nM): -0.0025 ± 0.011
level (log10) ([6]; 60000 nM): 0.0115 ± 0.0064

HDF3CGF:CXCL9/MIG
level (log10) ([1]; 6700 nM): -0.0105 ± 0.0035
level (log10) ([1]; 20000 nM): -0.004 ± 0.0057
level (log10) ([1]; 60000 nM): -0.009 ± 0.018
level (log10) ([2]; 6700 nM): -0.0005 ± 0.005
level (log10) ([2]; 20000 nM): -0.005 ± 0.035
level (log10) (Octafluoroadipic acid; 6700 nM): 0.009 ± 0.0028
level (log10) (Octafluoroadipic acid; 20000 nM): 0.007 ± 0.018
level (log10) (Octafluoroadipic acid; 60000 nM): -0.0055 ± 0.015
level (log10) [3]: -0.196 ± 0.0035
level (log10) ([4]; 6700 nM): -0.0105 ± 0.039
level (log10) ([4]; 20000 nM): -0.0215 ± 0.056
level (log10) ([4]; 60000 nM): -0.0305 ± 0.054
level (log10) ([5]; 6700 nM): 0.004 ± 0.0057
level (log10) ([5]; 20000 nM): 0.002 ± 0.0042
level (log10) ([5]; 60000 nM): -0.0055 ± 0.005
level (log10) ([6]; 6700 nM): -0.105 ± 0.011
level (log10) ([6]; 20000 nM): -0.283 ± 0.03
level (log10) ([6]; 60000 nM): -0.525 ± 0.14

HDF3CGF:CXCL10/IP-10
level (log10) ([1]; 6700 nM): 0.0155 ± 0.00071
level (log10) ([1]; 20000 nM): 0.0165 ± 0.013
level (log10) ([1]; 60000 nM): 0.005 ± 0.0028
level (log10) ([2]; 6700 nM): -0.0105 ± 0.026
level (log10) ([2]; 20000 nM): -0.0165 ± 0.035
level (log10) (Octafluoroadipic acid; 6700 nM): 0 ± 0.0057
level (log10) (Octafluoroadipic acid; 20000 nM): -0.005 ± 0.0028
level (log10) (Octafluoroadipic acid; 60000 nM): 0.001 ± 0.0085
level (log10) [3]: -0.3805 ± 0.00071
level (log10) ([4]; 6700 nM): -0.0175 ± 0.084
level (log10) ([4]; 20000 nM): -0.0415 ± 0.088
level (log10) ([4]; 60000 nM): -0.0395 ± 0.035
level (log10) ([5]; 6700 nM): 0.0105 ± 0.033
level (log10) ([5]; 20000 nM): -0.0145 ± 0.05
level (log10) ([5]; 60000 nM): -0.0105 ± 0.056
level (log10) ([6]; 6700 nM): -0.0435 ± 0.04
level (log10) ([6]; 20000 nM): -0.155 ± 0.013
level (log10) ([6]; 60000 nM): -0.418 ± 0.059

HDF3CGF:CXCL11/I-TAC
level (log10) ([1]; 6700 nM): -0.0135 ± 0.0035
level (log10) ([1]; 20000 nM): -0.015 ± 0.0099
level (log10) ([1]; 60000 nM): -0.03
level (log10) ([2]; 6700 nM): -0.026
level (log10) ([2]; 20000 nM): -0.035 ± 0.014
level (log10) (Octafluoroadipic acid; 6700 nM): -0.008 ± 0.018
level (log10) (Octafluoroadipic acid; 20000 nM): -0.005 ± 0.0085
level (log10) (Octafluoroadipic acid; 60000 nM): -0.002 ± 0.0042
level (log10) [3]: -0.149 ± 0.013
level (log10) ([4]; 6700 nM): -0.035 ± 0.079
level (log10) ([4]; 20000 nM): -0.0465 ± 0.074
level (log10) ([4]; 60000 nM): -0.0745 ± 0.12
level (log10) ([5]; 6700 nM): 0.0165 ± 0.022
level (log10) ([5]; 20000 nM): 0.0055 ± 0.021
level (log10) ([5]; 60000 nM): -0.0365 ± 0.063
level (log10) ([6]; 6700 nM): -0.0395 ± 0.053
level (log10) ([6]; 20000 nM): -0.139 ± 0.077
level (log10) ([6]; 60000 nM): -0.319 ± 0.13

HDF3CGF:Collagen I
level (log10) ([1]; 6700 nM): -0.058 ± 0.021
level (log10) ([1]; 20000 nM): -0.0195 ± 0.053
level (log10) ([1]; 60000 nM): -0.0335 ± 0.039
level (log10) ([2]; 6700 nM): 0.0095 ± 0.077
level (log10) ([2]; 20000 nM): 0.052 ± 0.038
level (log10) (Octafluoroadipic acid; 6700 nM): -0.008 ± 0.059
level (log10) (Octafluoroadipic acid; 20000 nM): -0.011 ± 0.024
level (log10) (Octafluoroadipic acid; 60000 nM): 0.042 ± 0.021
level (log10) [3]: -0.0565 ± 0.061
level (log10) ([4]; 6700 nM): -0.0105 ± 0.025
level (log10) ([4]; 20000 nM): -0.0025 ± 0.028
level (log10) ([4]; 60000 nM): 0.0195 ± 0.026
level (log10) ([5]; 6700 nM): -0.046 ± 0.024
level (log10) ([5]; 20000 nM): -0.037 ± 0.031
level (log10) ([5]; 60000 nM): 0.017 ± 0.055
level (log10) ([6]; 6700 nM): -0.021 ± 0.065
level (log10) ([6]; 20000 nM): -0.0405 ± 0.053
level (log10) ([6]; 60000 nM): -0.116 ± 0.0057

HDF3CGF:Collagen III
level (log10) ([1]; 6700 nM): 0.0005 ± 0.00071
level (log10) ([1]; 20000 nM): -0.0175 ± 0.005
level (log10) ([1]; 60000 nM): -0.0675 ± 0.037
level (log10) ([2]; 6700 nM): -0.022 ± 0.035
level (log10) ([2]; 20000 nM): -0.0165 ± 0.07
level (log10) (Octafluoroadipic acid; 6700 nM): -0.0085 ± 0.0064
level (log10) (Octafluoroadipic acid; 20000 nM): 0.0005 ± 0.018
level (log10) (Octafluoroadipic acid; 60000 nM): 0.0005 ± 0.0035
level (log10) [3]: -0.236 ± 0.028
level (log10) ([4]; 6700 nM): -0.005 ± 0.04
level (log10) ([4]; 20000 nM): -0.0495 ± 0.11
level (log10) ([4]; 60000 nM): -0.0455 ± 0.04
level (log10) ([5]; 6700 nM): -0.062 ± 0.12
level (log10) ([5]; 20000 nM): -0.08 ± 0.085
level (log10) ([5]; 60000 nM): -0.025 ± 0.16
level (log10) ([6]; 6700 nM): -0.008 ± 0.092
level (log10) ([6]; 20000 nM): -0.087 ± 0.12
level (log10) ([6]; 60000 nM): -0.211 ± 0.12

HDF3CGF:EGFR
level (log10) ([1]; 6700 nM): -0.0055 ± 0.005
level (log10) ([1]; 20000 nM): -0.005
level (log10) ([1]; 60000 nM): 0.0195 ± 0.0092
level (log10) ([2]; 6700 nM): -0.0055 ± 0.005
level (log10) ([2]; 20000 nM): 0 ± 0.018
level (log10) (Octafluoroadipic acid; 6700 nM): 0.0135 ± 0.0078
level (log10) (Octafluoroadipic acid; 20000 nM): 0.032 ± 0.048
level (log10) (Octafluoroadipic acid; 60000 nM): 0.032 ± 0.075
level (log10) [3]: -0.101 ± 0.023
level (log10) ([4]; 6700 nM): -0.05 ± 0.028
level (log10) ([4]; 20000 nM): -0.0445 ± 0.04
level (log10) ([4]; 60000 nM): -0.013 ± 0.033
level (log10) ([5]; 6700 nM): -0.035 ± 0.05
level (log10) ([5]; 20000 nM): -0.017 ± 0.042
level (log10) ([5]; 60000 nM): 0.0315 ± 0.07
level (log10) ([6]; 6700 nM): -0.008 ± 0.0085
level (log10) ([6]; 20000 nM): -0.0005 ± 0.025
level (log10) ([6]; 60000 nM): 0.013 ± 0.021
